The record followed here is patent US20250051355A1, “COMPOUNDS, COMPOSITIONS, AND METHODS” (ACONCAGUA BIO, INC., priority 2023, published 2025).

The target in experiment [1] is T1, human calcitonin receptor (CTR) (Homo sapiens, UniProt P30988).
T1 construct: expressed in transfected cells; host or cells: COS-7 (COS7-human CTR Clone #2)
T1 sequence (P30988 25-474): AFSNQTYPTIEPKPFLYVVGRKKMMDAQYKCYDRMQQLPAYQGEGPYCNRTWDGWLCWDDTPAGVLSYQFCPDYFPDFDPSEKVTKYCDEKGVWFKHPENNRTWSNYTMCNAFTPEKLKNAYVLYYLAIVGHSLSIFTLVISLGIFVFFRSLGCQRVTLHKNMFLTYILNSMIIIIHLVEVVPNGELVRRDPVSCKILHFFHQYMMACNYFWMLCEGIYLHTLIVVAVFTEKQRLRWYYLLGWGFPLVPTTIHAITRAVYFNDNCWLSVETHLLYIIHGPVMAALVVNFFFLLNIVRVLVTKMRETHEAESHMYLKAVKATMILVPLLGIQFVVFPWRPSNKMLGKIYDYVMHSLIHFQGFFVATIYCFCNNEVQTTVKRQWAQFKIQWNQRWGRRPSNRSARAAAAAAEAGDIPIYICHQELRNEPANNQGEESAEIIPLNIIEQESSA
Description: Calcitonin receptor (CTR) cAMP Assay. Format: cell-based. To be noted: COS7-human CTR Clone #2 cells, cAMP dynamic 2 kit; read-out: Calcitonin Receptor cAMP Stimulation Activity: EC50. In outline:
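COS-7 cells stably expressing human CTR (2000 cells/well) treated with 4-fold serially diluted compounds in HBSS/20 mM HEPES/0.5 mM IBMX/0.1% casein, 30 min at 37° C. cAMP quantified by HTRF (cAMP-d2 plus anti-cAMP cryptate, 1 h RT), fluorescence read at 665 and 615 nm.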

The target of experiment [2] is human calcitonin receptor (CTR) and RAMP3 (AMY3) (Homo sapiens, UniProt O60896+P30988). Description: Amylin Receptor cAMP Assay II. In kind it is cell-based. The following applies: COS-7/AMY3 cells, cAMP dynamic 2 kit, read-out: Amylin Receptor cAMP Stimulation Activity: EC50. In outline:
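COS-7 cells stably co-expressing human CTR and RAMP3 (AMY3) were treated with 4-fold serially diluted compounds at 2000 cells/well in HBSS with 20 mM HEPES, 0.5 mM IBMX and 0.1% casein for 30 min at 37 °C. cAMP was measured by HTRF (cAMP-d2 plus anti-cAMP cryptate, 1 h at RT) with reads at 665/615 nm.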

Each structure is given as a SMILES string.

Chain of human calcitonin receptor (CTR) and RAMP3 (AMY3) (O60896 24-148, one chain of several): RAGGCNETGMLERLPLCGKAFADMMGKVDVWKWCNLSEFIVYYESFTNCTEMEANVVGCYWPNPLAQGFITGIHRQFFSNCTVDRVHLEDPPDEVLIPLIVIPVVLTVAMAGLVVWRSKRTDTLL

By EC50 is commonly meant the concentration that produces a half-maximal response. Consider `Cc1nnc(-c2c(CCC3CCOCC3)nc3c(c2-c2cn4c(N[C@@H]5CCc6ncccc65)cccc4n2)S(=O)(=O)CC3C(C)C)o1` (stereo partly drawn) [Compound 87, N—(R)-4-aza-1-indanyl(2-(3-isopropyl-6-(5-methyl-1,3,4-oxadiazol-2-yl)-1,1-dioxo-5-[2-(tetrahydro-2H-pyran-4-yl)ethyl]-1λ^6-thia-4-aza-7-indanyl}-1,3a-diaza-4-indenyl)amine], for which the EC50 in experiment [1] is 4380 nM; in experiment [2], above 100 nM.
In the same order, the values of `Cc1nnc(-c2c(CCC3CCOCC3)nc3c(c2-c2ccc4c(c2)oc(=O)n4C(C)c2ccc(C#N)c(F)c2)c(=O)n2n3CCC2)o1` (stereo not shown) [Compound 114, 2-fluoro-4-[1-(6-(10-(5-methyl-1,3,4-oxadiazol-2-yl)-7-oxo-11-[2-(tetrahydro-2H-pyran-4-yl)ethyl]-2,6,12-triazatricyclo[6.4.0.0^2,6]dodeca-1(12),8,10-trien-9-yl}-2-oxo-1,3-benzoxazol-3-yl)ethyl]benzonitrile] are 4.15 nM and 135 nM.
For `COc1noc(-c2c(CCc3ccc(F)cc3)nc3c(c2-c2cc4ccnc(N[C@@H]5CCc6c(OC)cccc65)c4s2)C(=O)N2CCC[C@@H]32)n1` [Compound 97, (S)-2-(4-fluorophenethyl)-3-(3-methoxy-1,2,4-oxadiazol-5-yl)-4-(7-(((R)-4-methoxy-2,3-dihydro-1H-inden-1-yl)amino)thieno[2,3-c]pyridin-2-yl)-7,8,9,9a-tetrahydro-5H-pyrido[2,3-a]pyrrolizin-5-one] the same measures were 20.7 nM and 318 nM.
For `Cc1nnc(-c2c(CCc3ccc(F)cc3)nc3c(c2-c2cc4ccnc(N[C@@H]5CCc6ncccc65)c4s2)c(=O)n2n3CCC2)o1` [Compound 139, 9-(7-[(R)-4-aza-1-indanylamino]-1-thia-6-aza-2-indenyl}-11-[2-(p-fluorophenyl)ethyl]-10-(5-methyl-1,3,4-oxadiazol-2-yl)-2,6,12-triazatricyclo[6.4.0.0^2,6]dodeca-1(8),9,11-trien-7-one] the same measures were 8.78 nM and 150 nM.
With `Cc1nnc(-c2c(CCC34CCC(CC3)OC4)nc3c(c2-c2ccc4c(c2)oc(=O)n4Cc2ccc(C#N)cn2)c(=O)n2n3CCC2)o1` [Compound 144, 6-((6-[10-(5-methyl-1,3,4-oxadiazol-2-yl)-11-(2-(2-oxabicyclo[2.2.2]oct-4-yl)ethyl}-7-oxo-2,6,12-triazatricyclo[6.4.0.0^2,^6]dodeca-1(12),8,10-trien-9-yl]-2-oxo-1,3-benzoxazol-3-yl}methyl)nicotinonitrile], the EC50 in experiment [1] came to 2.58 nM; in experiment [2] it was 83.4 nM.
For `Cc1nnc(-c2c(CC3COc4cc(F)ccc43)nc3c(c2-c2ccc(C(=O)NCc4ccc(F)c(F)c4)s2)C(=O)N2CCC[C@@H]32)o1` (stereo partly drawn) [Compound 67, 5-[(9aS)-2-[(6-fluoro-2,3-dihydrobenzofuran-3-yl)methyl]-3-(5-methyl-1,3,4-oxadiazol-2-yl)-5-oxo-7,8,9,9a-tetrahydropyrido[2,3-a]pyrrolizin-4-yl]-N-[(3,4-difluorophenyl)methyl]thiophene-2-carboxamide] the same measures were 22 nM and 412 nM.
In the same order, the values of `Cc1nnc(-c2c(CCc3ccc(F)cc3)nc3c(c2-c2cnc4c(ccn4Cc4ccc(C#N)c(F)c4)c2)c(=O)n2n3CCC2)o1` [Compound 141, 2-fluoro-4-[(5-(11-[2-(p-fluorophenyl)ethyl]-10-(5-methyl-1,3,4-oxadiazol-2-yl)-7-oxo-2,6,12-triazatricyclo[6.4.0.0]dodeca-1(12),8,10-trien-9-yl}-1H-1,7-diazainden-1-yl)methyl]benzonitrile] are 4.45 nM and 74.3 nM.
In the same order, the values of `CC(C)c1nnc(-c2c(CCC3CCOCC3)nc3c(c2-c2ccc4c(c2)oc(=O)n4Cc2ccc(C#N)c(F)c2)c(=O)n2n3CCC2)o1` [Compound 150, 2-fluoro-4-[(6-(10-(5-isopropyl-1,3,4-oxadiazol-2-yl)-7-oxo-11-[2-(tetrahydro-2H-pyran-4-yl)ethyl]-2,6,12-triazatricyclo[6.4.0.0^2,6]dodeca-1(8),9,11-trien-9-yl}-2-oxo-1,3-benzoxazol-3-yl)methyl]benzonitrile] are 1.86 nM and 15.2 nM.
In the case of `Cc1nnc(-c2c(CCC3CCOCC3)nc3c(c2-c2cc4ccnc(N[C@@H]5CCc6ncccc65)c4s2)S(=O)(=O)N2CCC[C@@H]32)o1` [Compound 81, (S)-4-(7-(((R)-6,7-dihydro-5H-cyclopenta[b]pyridin-5-yl)amino)thieno[2,3-c]pyridin-2-yl)-3-(5-methyl-1,3,4-oxadiazol-2-yl)-2-(2-(tetrahydro-2H-pyran-4-yl)ethyl)-7,8,9,9a-tetrahydropyrrolo[1′,2′:2,3]isothiazolo[4,5-b]pyridine 5,5-dioxide], the figures for the concentration giving a half-maximal response (EC50) in experiment [1] and in experiment [2] were 7.5 nM and 325 nM, respectively.
With `Cc1cc(-c2c(CCC3CCOCC3)nc3c(c2-c2cc4ccnc(N[C@@H]5CCc6ncccc65)c4s2)S(=O)(=O)CC3C(C)C)ccn1` (stereo partly drawn) [Compound 91, 7-(7-(((R)-6,7-dihydro-5H-cyclopenta[b]pyridin-5-yl)amino)thieno[2,3-c]pyridin-2-yl)-3-isopropyl-6-(2-methylpyridin-4-yl)-5-(2-(tetrahydro-2H-pyran-4-yl)ethyl)-2,3-dihydrothieno[3,2-b]pyridine 1,1-dioxide], the EC50 was 45.2 nM in experiment [1] and 499 nM in experiment [2].
With `Cc1nnc(-c2c(CCC3CCOCC3)nc3c(c2-c2ccc4c(c2)oc(=O)n4Cc2ccc(C#N)c(F)c2)S(=O)(=O)CC3C(C)C)o1` (stereo not shown) [Compound 109, 2-fluoro-4-[(6-(3-isopropyl-6-(5-methyl-1,3,4-oxadiazol-2-yl)-1,1-dioxo-5-[2-(tetrahydro-2H-pyran-4-yl)ethyl]-1λ^6-thia-4-aza-7-indanyl}-2-oxo-1,3-benzoxazol-3-yl)methyl]benzonitrile], the concentration giving a half-maximal response (EC50) amounted to 1.51 nM in experiment [1] and 64.8 nM in experiment [2].
In the same order, the values of `Cc1nnc(-c2c(CCc3ccc(F)cc3)nc3c(c2-c2ccc(C(=O)NCc4ccc(F)c(F)c4)s2)C(=O)N2CCOC[C@@H]32)o1` [Compound 68, (R)—N-(3,4-difluorobenzyl)-5-(2-(4-fluorophenethyl)-3-(5-methyl-1,3,4-oxadiazol-2-yl)-5-oxo-7,8,10,10a-tetrahydro-5H-pyrido[2′,3′:3,4]pyrrolo[2,1-c][1,4]oxazin-4-yl)thiophene-2-carboxamide] are 3 nM and 168 nM.
In the same order, the values of `COc1ccnc(-c2c(CCC3CCOCC3)nc3c(c2-c2cc4ccnc(N[C@@H]5CCc6ncccc65)c4s2)S(=O)(=O)CC3C(C)C)n1` (stereo partly drawn) [Compound 146, N—(R)-4-aza-1-indanyl(2-(3-isopropyl-6-(4-methoxy-2-pyrimidinyl)-1,1-dioxo-5-[2-(tetrahydro-2H-pyran-4-yl)ethyl]-1λ^6-thia-4-aza-7-indanyl}-1-thia-6-aza-7-indenyl)amine] are 4.06 nM and 58.4 nM.
On to `Cc1nnc(-c2c(CCC3CCOC(C)(C)C3)nc3c(c2-c2ccc4c(c2)oc(=O)n4Cc2ccc(C#N)c(F)c2)C(=O)N2CCOC[C@@H]32)o1` (stereo partly drawn) [Compound 112, 4-[(6-((4aR,9aR)-6-[2-(2,2-dimethyltetrahydro-2H-pyran-4-yl)ethyl]-7-(5-methyl-1,3,4-oxadiazol-2-yl)-9-oxo-1,2,4,4a-tetrahydro-9H-3-oxa-5,9a-diazafluoren-8-yl}-2-oxo-1,3-benzoxazol-3-yl)methyl]-2-fluorobenzonitrile], for which the EC50 in experiment [1] was determined as 5.3 nM; in experiment [2] it was 124 nM.
As for `Cc1nnc(-c2c(CCC3CCCO3)nc3c(c2-c2cc4ncnc(N[C@@H]5CCc6ncccc65)c4s2)S(=O)(=O)CC3C(C)C)o1` (stereo partly drawn) [Compound 100, N—(R)-4-aza-1-indanyl(2-(3-isopropyl-6-(5-methyl-1,3,4-oxadiazol-2-yl)-1,1-dioxo-5-[2-(tetrahydro-2-furyl)ethyl]-1λ^6-thia-4-aza-7-indanyl}-1-thia-4,6-diaza-7-indenyl)amine], the EC50 in experiment [1] turned out to be 184 nM; in experiment [2], 6180 nM.
For `CCc1nc2c(c(-c3ccc4c(c3)OC(C)(C)C(=O)N4Cc3ccc(F)cn3)c1-c1nnc(C)o1)C(=O)N1CC3CC21C3` [Compound 161, 7-[4-ethyl-5-(5-methyl-1,3,4-oxadiazol-2-yl)-8-oxo-3,9-diazatetracyclo[9.1.1.01, 0.2,1]trideca-2,4,6-trien-6-yl]-4-[(5-fluoro-2-pyridyl)methyl]-2,2-dimethyl-4H-1,4-benzoxazin-3(2H)-one] the same measures were 226 nM and 5380 nM.
For `Cc1nnc(-c2c(CCC3CCOCC3)nc3c(c2-c2cc4ccnc(Nc5ccc(F)c(F)c5)c4s2)S(=O)(=O)CC3C(C)C)o1` (stereo not shown) [Compound 137], the 50% effective concentration (EC50) was determined as 276 nM in experiment [1] and 1970 nM in experiment [2].
